Experimental data: patent US9707229B2, “Compositions and methods for treating an infection” (CMPD LICENSING, LLC, priority 2015, dated 2017)

Key:
Assay type in all cases: cell-based
Legionella pneumophila = details: expected efficacy; Gram: neg
Brucella species = details: expected efficacy; Gram: neg
Streptococcus agalactiae = assay: Expected efficacy of antibiotic agents; details: Gram: pos
[1] = tested on: Acinetobacter calcoaceticus; assay: Expected efficacy of antibiotic agents; details: Gram: neg
Citrobacter freundii = assay: Expected efficacy of antibiotic agents; details: Gram: neg
Chlamydia trachomatis = assay: Expected efficacy of antibiotic agents; details: Gram: n/a
Escherichia coli = assay: Expected efficacy of antibiotic agents; details: Gram: neg
Providencia rettgeri = assay: Expected efficacy of antibiotic agents; details: Gram: neg
Enterobacter sakazakii = assay: Expected efficacy of antibiotic agents; details: Gram: neg
[2] = tested on: Methicillin resistant staph aureus (MRSA); assay: Expected efficacy of antibiotic agents; details: Gram: pos
Morganella morganii = assay: Expected efficacy of antibiotic agents; details: Gram: neg
Streptococcus pyogenes = assay: Expected efficacy of antibiotic agents; details: Gram: pos
[3] = tested on: Klebsiella (Calymmatobacterium) granulomatis; assay: Expected efficacy of antibiotic agents; details: Gram: neg
Citrobacter diversus = assay: Expected efficacy of antibiotic agents; details: Gram: neg
Proteus mirabilis = assay: Expected efficacy of antibiotic agents; details: Gram: neg
Providencia stuartii = assay: Expected efficacy of antibiotic agents; details: Gram: neg
Pseudomonas aeruginosa = assay: Expected efficacy of antibiotic agents; details: Gram: neg
Vibrio cholerae = assay: Expected efficacy of antibiotic agents; details: Gram: neg
Klebsiella oxytoca = assay: Expected efficacy of antibiotic agents; details: Gram: neg
Serratia marcescens = assay: Expected efficacy of antibiotic agents; details: Gram: neg
Chlamydia psittaci = details: expected efficacy; Gram: n/a
[4] = tested on: Staphylococcus epidermidis; assay: Expected efficacy of antibiotic agents; details: Gram: pos
Rickettsiae = details: expected efficacy; Gram: neg
Bordetella pertussis = assay: Expected efficacy of antibiotic agents; details: Gram: neg
Bacteroides fragilis = assay: Expected efficacy of antibiotic agents; details: Gram: anaer
Enterobacter cloacae = assay: Expected efficacy of antibiotic agents; details: Gram: neg
Haemophilus influenzae = assay: Expected efficacy of antibiotic agents; details: Gram: neg
Corynebacterium jeikeium = assay: Expected efficacy of antibiotic agents; details: Gram: pos
Clostridium perfringens = details: expected efficacy; Gram: anaer
Acinetobacter lwoffii = assay: Expected efficacy of antibiotic agents; details: Gram: neg
Pseudomonas fluorescens = assay: Expected efficacy of antibiotic agents; details: Gram: neg
Enterobacter aerogenes = assay: Expected efficacy of antibiotic agents; details: Gram: neg
Clostridium difficile = assay: Expected efficacy of antibiotic agents; details: Gram: anaer
Bartonella bacilliformis = assay: Expected efficacy of antibiotic agents; details: Gram: neg
Proteus vulgaris = assay: Expected efficacy of antibiotic agents; details: Gram: neg
Enterococcus faecium = assay: Expected efficacy of antibiotic agents; details: Gram: pos
Mycoplasma pneumoniae = assay: Expected efficacy of antibiotic agents; details: Gram: n/a
Neisseria meningitidis = assay: Expected efficacy of antibiotic agents; details: Gram: neg
[5] = tested on: Staphylococcus aureus (MSSA); assay: Expected efficacy of antibiotic agents; details: Gram: pos
Campylobacter jejuni = assay: Expected efficacy of antibiotic agents; details: Gram: neg
Enterococcus faecalis = assay: Expected efficacy of antibiotic agents; details: Gram: pos
Acinetobacter baumannii = assay: Expected efficacy of antibiotic agents; details: Gram: neg
Streptococcus pneumoniae = assay: Expected efficacy of antibiotic agents; details: Gram: pos
Chlamydia pneumoniae = assay: Expected efficacy of antibiotic agents; details: Gram: n/a
Francisella tularensis = details: expected efficacy; Gram: neg
Klebsiella pneumoniae = assay: Expected efficacy of antibiotic agents; details: Gram: neg
Moraxella catarrhalis = assay: Expected efficacy of antibiotic agents; details: Gram: neg
Yersinia pestis = details: expected efficacy; Gram: neg
Shigella flexneri = assay: Expected efficacy of antibiotic agents; details: Gram: neg
Shigella sonnei = assay: Expected efficacy of antibiotic agents; details: Gram: neg
[6] = tested on: Haemophilus parainfluenzae; assay: Expected efficacy of antibiotic agents; details: Gram: neg
Shigella boydii = assay: Expected efficacy of antibiotic agents; details: Gram: neg
Salmonella typhi = assay: Expected efficacy of antibiotic agents; details: Gram: neg
Neisseria gonorrhoeae = assay: Expected efficacy of antibiotic agents; details: Gram: neg
Shigella dysenteriae = assay: Expected efficacy of antibiotic agents; details: Gram: neg
Candida species = assay: Expected efficacy of antifungal agents
Diphtheroids = assay: Expected efficacy of antibiotic agents; details: Gram: pos
Haemophilus ducreyi = assay: Expected efficacy of antibiotic agents; details: Gram: neg
[7] = tested on: Corynebacterium urealyticum; assay: Expected efficacy of antibiotic agents; details: Gram: pos
Peptostreptococcus = assay: Expected efficacy of antibiotic agents; details: Gram: pos
[8] = tested on: Viridans group streptococci; assay: Expected efficacy of antibiotic agents; details: Gram: pos

CC[C@H]1OC(=O)[C@H](C)[C@@H](O[C@H]2C[C@@](C)(OC)[C@@H](O)[C@H](C)O2)[C@H](C)[C@@H](O[C@@H]2O[C@H](C)C[C@H](N(C)C)[C@H]2O)[C@](C)(O)C[C@@H](C)CN(C)[C@H](C)[C@@H](O)[C@]1(C)O [Azithromycin]
yes: efficacy against Legionella pneumophila (Legionella pneumophila) | efficacy against Streptococcus agalactiae (Streptococcus agalactiae) | efficacy against Chlamydia trachomatis (Chlamydia trachomatis) | efficacy against Streptococcus pyogenes (Streptococcus pyogenes) | efficacy against Vibrio cholerae (Vibrio cholerae) | efficacy against Chlamydia psittaci (Chlamydia psittaci) | efficacy against Staphylococcus epidermidis [4] | efficacy against Rickettsiae (Rickettsiae) | efficacy against Bordetella pertussis (Bordetella pertussis) | efficacy against Haemophilus influenzae (Haemophilus influenzae) | efficacy against Bartonella bacilliformis (Bartonella bacilliformis) | efficacy against Mycoplasma pneumoniae (Mycoplasma pneumoniae) | efficacy against Neisseria meningitidis (Neisseria meningitidis) | efficacy against Staphylococcus aureus (MSSA) [5] | efficacy against Campylobacter jejuni (Campylobacter jejuni) | efficacy against Streptococcus pneumoniae (Streptococcus pneumoniae) | efficacy against Chlamydia pneumoniae (Chlamydia pneumoniae) | efficacy against Moraxella catarrhalis (Moraxella catarrhalis)
no: efficacy against Brucella species (Brucella species) | efficacy against Acinetobacter calcoaceticus [1] | efficacy against Citrobacter freundii (Citrobacter freundii) | efficacy against Escherichia coli (Escherichia coli) | efficacy against Providencia rettgeri (Providencia rettgeri) | efficacy against Enterobacter sakazakii (Enterobacter sakazakii) | efficacy against Methicillin resistant staph aureus (MRSA) [2] | efficacy against Morganella morganii (Morganella morganii) | efficacy against Klebsiella (Calymmatobacterium) granulomatis [3] | efficacy against Citrobacter diversus (Citrobacter diversus) | efficacy against Proteus mirabilis (Proteus mirabilis) | efficacy against Providencia stuartii (Providencia stuartii) | efficacy against Pseudomonas aeruginosa (Pseudomonas aeruginosa) | efficacy against Klebsiella oxytoca (Klebsiella oxytoca) | efficacy against Serratia marcescens (Serratia marcescens) | efficacy against Bacteroides fragilis (Bacteroides fragilis) | efficacy against Enterobacter cloacae (Enterobacter cloacae) | efficacy against Corynebacterium jeikeium (Corynebacterium jeikeium) | efficacy against Clostridium perfringens (Clostridium perfringens) | efficacy against Acinetobacter lwoffii (Acinetobacter lwoffii) | efficacy against Pseudomonas fluorescens (Pseudomonas fluorescens) | efficacy against Enterobacter aerogenes (Enterobacter aerogenes) | efficacy against Clostridium difficile (Clostridium difficile) | efficacy against Proteus vulgaris (Proteus vulgaris) | efficacy against Enterococcus faecium (Enterococcus faecium) | efficacy against Enterococcus faecalis (Enterococcus faecalis) | efficacy against Acinetobacter baumannii (Acinetobacter baumannii) | efficacy against Francisella tularensis (Francisella tularensis) | efficacy against Klebsiella pneumoniae (Klebsiella pneumoniae)

O=C(O)c1cn(C2CC2)c2cc(N3CCNCC3)c(F)cc2c1=O [Ciprofloxacin]
no: efficacy against Methicillin resistant staph aureus (MRSA) [2] | efficacy against Bacteroides fragilis (Bacteroides fragilis) | efficacy against Corynebacterium jeikeium (Corynebacterium jeikeium) | efficacy against Enterococcus faecium (Enterococcus faecium)
yes: efficacy against Yersinia pestis (Yersinia pestis) | efficacy against Legionella pneumophila (Legionella pneumophila) | efficacy against Citrobacter freundii (Citrobacter freundii) | efficacy against Escherichia coli (Escherichia coli) | efficacy against Shigella flexneri (Shigella flexneri) | efficacy against Shigella sonnei (Shigella sonnei) | efficacy against Providencia rettgeri (Providencia rettgeri) | efficacy against Haemophilus parainfluenzae [6] | efficacy against Morganella morganii (Morganella morganii) | efficacy against Shigella boydii (Shigella boydii) | efficacy against Citrobacter diversus (Citrobacter diversus) | efficacy against Proteus mirabilis (Proteus mirabilis) | efficacy against Providencia stuartii (Providencia stuartii) | efficacy against Pseudomonas aeruginosa (Pseudomonas aeruginosa) | efficacy against Salmonella typhi (Salmonella typhi) | efficacy against Neisseria gonorrhoeae (Neisseria gonorrhoeae) | efficacy against Vibrio cholerae (Vibrio cholerae) | efficacy against Klebsiella oxytoca (Klebsiella oxytoca) | efficacy against Serratia marcescens (Serratia marcescens) | efficacy against Staphylococcus epidermidis [4] | efficacy against Rickettsiae (Rickettsiae) | efficacy against Shigella dysenteriae (Shigella dysenteriae) | efficacy against Haemophilus influenzae (Haemophilus influenzae) | efficacy against Pseudomonas fluorescens (Pseudomonas fluorescens) | efficacy against Enterobacter aerogenes (Enterobacter aerogenes) | efficacy against Bartonella bacilliformis (Bartonella bacilliformis) | efficacy against Proteus vulgaris (Proteus vulgaris) | efficacy against Neisseria meningitidis (Neisseria meningitidis) | efficacy against Campylobacter jejuni (Campylobacter jejuni) | efficacy against Chlamydia pneumoniae (Chlamydia pneumoniae) | efficacy against Francisella tularensis (Francisella tularensis) | efficacy against Klebsiella pneumoniae (Klebsiella pneumoniae) | efficacy against Moraxella catarrhalis (Moraxella catarrhalis)

C[C@@H]1[C@H](O)[C@@H](C)/C=C/C=C/CC/C=C/C=C/C=C/C=C/C(O[C@H]2O[C@H](C)[C@@H](O)[C@H](N)[C@@H]2O)CC2O[C@](O)(CC(O)C(O)CCC(O)CC(O)CC(O)CC(=O)O[C@H]1C)CC(O)C2C(=O)O (stereo partly shown) [Nystatin]
yes: efficacy against Candida species (Candida species)

NC[C@H]1O[C@H](O[C@H]2[C@H](O)[C@@H](O[C@H]3O[C@H](CO)[C@@H](O)[C@H](N)[C@H]3O)[C@H](N)C[C@@H]2N)[C@H](N)C[C@@H]1O [Tobramycin]
no: efficacy against Legionella pneumophila (Legionella pneumophila) | efficacy against Streptococcus agalactiae (Streptococcus agalactiae) | efficacy against Acinetobacter calcoaceticus [1] | efficacy against Chlamydia trachomatis (Chlamydia trachomatis) | efficacy against Methicillin resistant staph aureus (MRSA) [2] | efficacy against Diphtheroids (Diphtheroids) | efficacy against Streptococcus pyogenes (Streptococcus pyogenes) | efficacy against Neisseria gonorrhoeae (Neisseria gonorrhoeae) | efficacy against Vibrio cholerae (Vibrio cholerae) | efficacy against Chlamydia psittaci (Chlamydia psittaci) | efficacy against Staphylococcus epidermidis [4] | efficacy against Bordetella pertussis (Bordetella pertussis) | efficacy against Corynebacterium urealyticum [7] | efficacy against Peptostreptococcus (Peptostreptococcus) | efficacy against Bacteroides fragilis (Bacteroides fragilis) | efficacy against Corynebacterium jeikeium (Corynebacterium jeikeium) | efficacy against Clostridium perfringens (Clostridium perfringens) | efficacy against Viridans group streptococci [8] | efficacy against Acinetobacter lwoffii (Acinetobacter lwoffii) | efficacy against Clostridium difficile (Clostridium difficile) | efficacy against Enterococcus faecium (Enterococcus faecium) | efficacy against Mycoplasma pneumoniae (Mycoplasma pneumoniae) | efficacy against Neisseria meningitidis (Neisseria meningitidis) | efficacy against Staphylococcus aureus (MSSA) [5] | efficacy against Enterococcus faecalis (Enterococcus faecalis) | efficacy against Acinetobacter baumannii (Acinetobacter baumannii) | efficacy against Streptococcus pneumoniae (Streptococcus pneumoniae) | efficacy against Chlamydia pneumoniae (Chlamydia pneumoniae)
yes: efficacy against Yersinia pestis (Yersinia pestis) | efficacy against Citrobacter freundii (Citrobacter freundii) | efficacy against Escherichia coli (Escherichia coli) | efficacy against Shigella flexneri (Shigella flexneri) | efficacy against Shigella sonnei (Shigella sonnei) | efficacy against Enterobacter sakazakii (Enterobacter sakazakii) | efficacy against Shigella boydii (Shigella boydii) | efficacy against Klebsiella (Calymmatobacterium) granulomatis [3] | efficacy against Citrobacter diversus (Citrobacter diversus) | efficacy against Proteus mirabilis (Proteus mirabilis) | efficacy against Pseudomonas aeruginosa (Pseudomonas aeruginosa) | efficacy against Klebsiella oxytoca (Klebsiella oxytoca) | efficacy against Serratia marcescens (Serratia marcescens) | efficacy against Haemophilus ducreyi (Haemophilus ducreyi) | efficacy against Shigella dysenteriae (Shigella dysenteriae) | efficacy against Enterobacter cloacae (Enterobacter cloacae) | efficacy against Haemophilus influenzae (Haemophilus influenzae) | efficacy against Pseudomonas fluorescens (Pseudomonas fluorescens) | efficacy against Enterobacter aerogenes (Enterobacter aerogenes) | efficacy against Proteus vulgaris (Proteus vulgaris) | efficacy against Campylobacter jejuni (Campylobacter jejuni) | efficacy against Klebsiella pneumoniae (Klebsiella pneumoniae) | efficacy against Moraxella catarrhalis (Moraxella catarrhalis)
